{"source": "paper PMC9496321", "about": "“6-Furopyridine Hexamethylene Amiloride Is a Non-Selective P2X7 Receptor Antagonist” (Biomolecules, 2022)", "key": {"[1]": {"target": "T1, endogenous hP2X7 (Homo sapiens, UniProt Q99572)", "T1 construct": "endogenous in cells; host or cells: RPMI8226 cells", "T1 sequence (Q99572 1-595)": "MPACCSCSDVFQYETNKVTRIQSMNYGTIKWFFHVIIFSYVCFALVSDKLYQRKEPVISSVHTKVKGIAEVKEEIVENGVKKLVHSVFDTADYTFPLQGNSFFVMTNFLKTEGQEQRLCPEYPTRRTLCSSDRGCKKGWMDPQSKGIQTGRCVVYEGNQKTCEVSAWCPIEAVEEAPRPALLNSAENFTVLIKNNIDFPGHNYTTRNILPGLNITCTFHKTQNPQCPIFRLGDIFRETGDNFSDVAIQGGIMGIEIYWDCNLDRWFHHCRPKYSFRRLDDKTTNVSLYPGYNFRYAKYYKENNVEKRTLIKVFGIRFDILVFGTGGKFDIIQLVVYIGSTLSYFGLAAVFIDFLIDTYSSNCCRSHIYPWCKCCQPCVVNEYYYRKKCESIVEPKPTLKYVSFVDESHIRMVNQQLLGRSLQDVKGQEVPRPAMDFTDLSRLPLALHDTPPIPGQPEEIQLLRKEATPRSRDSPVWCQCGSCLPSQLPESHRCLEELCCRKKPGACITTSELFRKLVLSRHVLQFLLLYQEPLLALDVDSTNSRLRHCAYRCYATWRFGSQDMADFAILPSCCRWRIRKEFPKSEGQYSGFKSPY", "assay": "ATP-induced ethidium+ uptake in RPMI8226 multiple myeloma cells (flow cytometry)", "type": "cell-based", "conditions": "any concentration up to 30 μM, 300 μM ATP, RPMI8226 cells"}, "[2]": {"target": "T2, hP2X7 (Homo sapiens, UniProt Q99572)", "T2 construct": "expressed in transfected cells; host or cells: HEK293 cells, stably transfected (HEK-hP2X7)", "T2 sequence (Q99572 1-595)": "T1 sequence (Q99572 1-595)", "assay": "ATP-induced ethidium+ uptake in stably transfected HEK-hP2X7 cells (flow cytometry)", "type": "cell-based", "conditions": "any concentration up to 30 μM, 450 μM ATP, HEK-hP2X7 cells"}, "[3]": {"target": "T3, P2X7 (Homo sapiens, UniProt Q99572)", "T3 sequence (Q99572 1-595)": "T1 sequence (Q99572 1-595)", "conditions": "human leukaemic lymphocytes, cited from earlier work; for inhibition of ATP-induced Na+ fluxes: 40 μM compound"}, "[4]": {"target": "T3, P2X7", "assay": "Plate-based flow cytometric YO-PRO-1 dye uptake compound screen in RPMI8226 cells", "type": "cell-based", "design": "endogenous in cells; host or cells: RPMI8226 cells", "conditions": "5 μM compound, 250 μM ATP; also previous studies", "method": "RPMI8226 cells were washed thrice with low-divalent medium (LDM) (145 mM NaCl, 2 mM KCl, 0.2 mM CaCl2, 13 mM D-glucose and 10 mM HEPES, pH 7.5) and 1 × 10^5 cells were added to each well of a 96-well flat-bottomed plate. Amiloride derivatives, at 10 μM (final concentration 5 μM) or vehicle (DMSO) were added, and plates pre-incubated (37 °C, 15 min). […] Wells were washed twice with LDM (300× g, 5 min) and cells were resuspended in LDM. Data was acquired with an Attune NxT Flow Cytometer an Autosampler (Thermo Fisher Scientific). Mean fluorescent intensity (MFI) of YO-PRO-1^+ uptake was determined using FlowJo."}, "[5]": {"tested_on": "hP2X7-mediated IL-1β release", "assay": "Whole blood IL-1β release assay", "type": "cell-based", "conditions": "30 μM compound, 6 mM ATP, LPS-primed human whole blood", "method": "Whole blood IL-1β release assays were conducted as described. Briefly, whole human blood was mixed with an equal volume of serum-free RPMI-1640 medium containing LPS (200 ng/mL), added to a flat-bottom 96-well plate and incubated (37 °C, 95% air/5% CO2, 105 min). Compounds (30 μM) or vehicle (DMSO) were added to respective wells and incubated (37 °C, 95% air/5% CO2, 15 min). […] Plates were centrifuged (700× g, 10 min) with the resulting supernatants collected and stored at −80 °C. hIL-1β concentrations were determined using a Human IL-1β ELISA (Thermo Fisher Scientific) according to the manufacturer’s instructions. Samples above the detection limit (7500 pg/mL) were set at 7500 pg/mL for statistical analysis."}, "[6]": {"target": "T3, P2X7", "assay": "ATP-induced YO-PRO-1 uptake into human T cells (PBMCs)", "type": "cell-based", "design": "Human peripheral blood mononuclear cells (PBMCs) were pre-incubated with DMSO (vehicle) or 30 μM 6-FPHMA; endogenous in cells; host or cells: cryopreserved human PBMCs (CD3+, CD4+, CD8+ T cells), four donors", "conditions": "30 μM compound, 1 mM ATP", "method": "ATP-mediated uptake assays were conducted as described with either ethidium bromide or YO-PRO-1 iodide. Briefly, RPMI8226, HEK-hP2X7, HEK-mP2X7, HEK-cP2X7 or cryopreserved human peripheral blood mononuclear cells (PBMCs) were washed thrice with LDM (300× g, 5 min), resuspended in LDM and 1 × 10^6 cells were added to individual tubes. Cells were pre-incubated in the absence of compound (37 °C, 5 min) or in the presence of compound or vehicle (DMSO) (37 °C, 15 min) as indicated. […] An equal volume of ice-cold Mg^2+ stop solution was added and cells centrifuged (300× g, 5 min). Cells were washed twice in LDM (300× g, 5 min), resuspended and data were collected with an LSR Fortessa X-20 flow cytometer. MFI of ethidium^+ or YO-PRO-1^2+ was determined using FlowJo."}, "[7]": {"tested_on": "human (h) P2X7", "design": "method as in PMID 9720806", "conditions": "10 μM compound, HEK-hP2X7 cells; cited from earlier work"}, "[8]": {"tested_on": "mouse (m) P2X7", "design": "method as in PMID 7514597", "conditions": "40 μM compound, Xenopus oocytes with mP2X7 mRNA; cited from earlier work"}, "[9]": {"tested_on": "mP2X7", "design": "method as in PMID 11181928", "conditions": "cited from earlier work"}, "[10]": {"target": "T2, hP2X7", "design": "method as in PMID 11181928", "conditions": "16 μM BzATP; cited from earlier work"}, "[11]": {"target": "T3, P2X7", "design": "endogenous in cells", "conditions": "human leukemic B cells, cited from earlier work"}}, "data": [{"smiles": "N=C(N)NC(=O)c1nc(-c2cc3cnccc3o2)c(N)nc1N", "note": "[6-FPA, 6-furopyridine-substituted amiloride]", "values": [{"measurement": "inhibition of hP2X7-mediated dye uptake", "setting": "[1]", "result": "did not inhibit"}, {"measurement": "inhibition of hP2X7-mediated dye uptake", "setting": "[2]", "result": "did not inhibit"}]}, {"smiles": "N=C(N)NC(=O)c1nc(Cl)c(N)nc1N", "note": "[Amiloride]", "values": [{"measurement": "inhibition of ATP-mediated Na+ fluxes", "setting": "[3]; 1 mM compound", "result": 50, "unit": "%"}, {"measurement": "block of hP2X7 in screening assay", "setting": "[4]", "result": "blocks hP2X7 relatively poorly"}]}, {"smiles": "CCOc1ccc(Nc2ccc(/C(=C3C=C/C(=[N+](/CC)Cc4cccc(S(=O)(=O)[O-])c4)C=C/3C)c3ccc(N(CC)Cc4cccc(S(=O)(=O)O)c4)cc3C)cc2)cc1", "note": "[BBG, Brilliant Blue G]", "values": [{"measurement": "reduction of ATP-induced IL-1β compared to vehicle control", "setting": "[5]", "result": "did not alter"}, {"measurement": "reduction of ATP-induced YO-PRO-1 uptake into CD3+ T cells", "setting": "[6]", "result": "90 ± 8", "unit": "%"}, {"measurement": "reduction of ATP-induced YO-PRO-1 uptake into CD4+ T cells", "setting": "[6]", "result": "83 ± 17", "unit": "%"}, {"measurement": "reduction of ATP-induced YO-PRO-1 uptake into CD8+ T cells", "setting": "[6]", "result": "72 ± 22", "unit": "%"}]}, {"smiles": "CCN(c1nc(N)c(C(=O)N=C(N)N)nc1Cl)C(C)C", "note": "[EIPA, 5-(N-ethyl-N-isopropyl) amiloride]", "values": [{"measurement": "inhibition of ATP-induced Na+ fluxes", "setting": "[3]", "result": 72, "unit": "%"}]}, {"smiles": "NC(N)=NC(=O)c1nc(Cl)c(N2CCCCCC2)nc1N", "note": "[HMA, 5-(N,N-hexamethylene) amiloride]", "values": [{"measurement": "inhibition of ATP-induced Na+ fluxes", "setting": "[3]", "result": 95, "unit": "%"}, {"measurement": "inhibition of BzATP-induced inward currents", "setting": "[7]", "result": 30, "unit": "%"}, {"measurement": "inhibition of ATP- and BzATP-induced currents", "setting": "[8]", "result": "partially inhibited"}, {"measurement": "effect on mP2X7-mediated dye uptake at low BzATP", "setting": "[9]; 16 μM BzATP", "result": "potentiated"}, {"measurement": "potency of inhibition of BzATP-induced uptake, mP2X7 compared to hP2X7", "setting": "[9]; HEK293 cells", "result": "reduced potency"}, {"measurement": "potentiation of dye uptake at low BzATP, hP2X7", "setting": "[10]", "result": "not observed"}, {"measurement": "inhibition of ATP-induced ethidium+ uptake", "setting": "[11]; 20 μM compound", "result": 50, "unit": "%"}, {"measurement": "concentration required for complete inhibition of ATP-induced ethidium+ uptake", "setting": "[11]", "result": "> 100", "unit": "µM"}]}, {"smiles": "O=C(NCC1(N2CCN(c3ccccc3)CC2)CCOCC1)c1cccnc1Sc1ccccc1", "note": "[JNJ-47965567]", "values": [{"measurement": "reduction of ATP-induced IL-1β compared to vehicle control", "setting": "[5]", "result": "98 ± 1", "unit": "%"}, {"measurement": "reduction of ATP-induced YO-PRO-1 uptake into CD3+ T cells", "setting": "[6]", "result": "79 ± 14", "unit": "%"}, {"measurement": "reduction of ATP-induced YO-PRO-1 uptake into CD4+ T cells", "setting": "[6]", "result": "78 ± 15", "unit": "%"}, {"measurement": "reduction of ATP-induced YO-PRO-1 uptake into CD8+ T cells", "setting": "[6]", "result": "80 ± 11", "unit": "%"}]}, {"smiles": "Cc1nc(N=Nc2ccc(S(=O)(=O)O)cc2S(=O)(=O)O)c(COP(=O)(O)O)c(C=O)c1O", "note": "[PPADS, Pyridoxalphosphate-6-azophenyl-2′,4′-disulfonic acid]", "values": [{"measurement": "reduction of ATP-induced IL-1β compared to vehicle control", "setting": "[5]", "result": "did not alter"}, {"measurement": "reduction of ATP-induced YO-PRO-1 uptake into CD3+ T cells", "setting": "[6]", "result": "85 ± 9", "unit": "%"}, {"measurement": "reduction of ATP-induced YO-PRO-1 uptake into CD4+ T cells", "setting": "[6]", "result": "85 ± 11", "unit": "%"}, {"measurement": "reduction of ATP-induced YO-PRO-1 uptake into CD8+ T cells", "setting": "[6]", "result": "86 ± 7", "unit": "%"}]}]}
